Test results published in patent US20040115167A1, “Drug delivery device and method having coated microprojections incorporating vasoconstrictors” (priority 2002, published 2004).
Like-named read-outs stand apart in the source and are kept apart here.

Key:
[1] = test system: hairless guinea pig; settings: skin sites monitored visually for 30 minutes
Protocol: (§1) The systems that were applied comprised a coated microprojection array which was adhered to the center of a low density polyethylene (LDPE) 7 cm^2 disc, coated with a propriety adhesive. Two systems were applied to each hairless guinea pig.
(§2) At the time of application, the skin of the flank of the animal was manually stretched bilaterally (opposing forces applied on both sides of the expected application site). System application was performed with an impact applicator which applied a force of 0.4 J. Following application of the systems, the stretching tension was released.
(§3) Half of the systems were applied for 5 seconds and then removed. The second half of the systems were applied for 2 minutes and then removed. Therefore there were four test conditions with each condition having been tested with four system.
Pictures of the application skin sites were taken 2 minutes after removal of the system. The skin sites were monitored visually for 30 minutes for blanching. Bleeding was evaluated visually from the pictures by estimating the percentage of the microprojection puncture sites that were bleeding. Blood flow (mL/min/100 g) was evaluated with a laser Doppler Velocimeter (LDV) at the skin site immediately prior to application of the system and 2 minutes following removal of the system. […]

[2] = test system: hairless guinea pig; settings: for blood flow at the application site: LDV 2 minutes after removal
Protocol: The Guinea pig albumin was used as a model drug or vaccine. The Guinea pig albumen and epinephrine were dry coated on the microprojections of a microprojection array. A microprojection array having long microprojections (600 microns) were chosen in order to maximize bleeding so that the efficacy of the vasoconstrictor could be more easily evaluated.
An aqueous coating solution containing 200 mg/ml of guinea pig albumin and 50 mg/ml of epinephrine bitartrate was prepared. A control solution was prepared which contained only 200 mg/mL guinea pig albumin in water and no vasoconstrictor. The microprojection arrays that were used a penetration angle of 80°. The penetration angle is defined as the angle between the two upper penetration edges of the microprojection. There were 72 microprojections/cm^2 and the overall area of the microprojection array was 2 cm^2.
One group of arrays were dipped into each solution and the excess was wicked off by briefly contacting the microprojection array with tissue. The microprojection arrays were then allowed to air-dry overnight at room temperature.
as §1, §2, §3
Pictures of the application skin sites were taken 2 minutes after removal of the system. The skin sites were monitored visually for 30 minutes for blanching. Bleeding was evaluated visually from the pictures by estimating the percentage of the microprojection puncture sites that were bleeding. Blood flow (mL/min/100 g) was evaluated with a laser Doppler Velocimeter (LDV) at the skin site immediately prior to application of the system and 2 minutes following removal of the system. For each guinea pig, the blood flow measurement taken prior to system application was subtracted from the second measurement (normalized blood flow).

CNC[C@H](O)c1ccc(O)c(O)c1 [epinephrine]
time blanching was detectable after removal of the microprojection arrays [1]: about 30 minutes | percentage of microslits that were bleeding ([2]; 5-second application, 600 micron microprojection array dry coated with guinea pig albumin 200 mg/ml + epinephrine bitartrate 50 mg/ml, pictures 2 minutes after removal): 20% | normalized blood flow (erythema at the application site) ([2]; FIG. 5, baseline blood flow subtracted): minimizes the erythema | blood flow at the application site ([2]; systems applied for 5 seconds): 30 mls/min/100 grams | blood flow at the application site ([2]; systems applied for 2 minutes): 30 mls/min/100 grams | percentage of microslits that were bleeding ([2]; two-minute application, compared with 5-second application, same coated array): little change in the data
